From patent US20090076130A1, “COMPOUNDS FOR THE INHIBITION OF HISTONE DEACETYLASE” (NATUREWISE BIOTECH & MEDICALS CORPORATION, priority 2007, published 2009)

Tests used:
rat C6 glioma cells = assay: Cell cycle / DNA content of C6 glioma cells by FACScan cytometry; type: cell-based; conditions: 0, 2.5, 5, 10 μg/mL, 72 hours, PI staining
Protocol: 1×10^6 of rat C6 glioma cells were treated with various concentrations of NBM-HD-1 (0 μg/mL, 2.5 μg/mL, 5 μg/mL, and 10 μg/mL) for 72 hours. The treated cells were trysinized and collected. The cells were resuspended in 200 μL PBS and then fixed by adding 800 μL of cold 100% ethanol. The resulting cells were fixed overnight at −20°. The cell pellets were collected by centrifugation, resuspended in 1 mL of hypotonic buffer (0.5% Triton X-100 in PBS and 1 μg/mL RNase A), and incubated at 37° for 30 minutes. Then, 1 mL of PI solution (50 μg/mL) was added to the resulting cell pellets. The mixture was allowed to stand at 4° for 30 min. The DNA amounts of the cells were analyzed by FACScan Cytometry (Becton Dickinson) (see FIG. 2).

acetylated histone H4 = assay: Western blotting of hyperacetylated histone H4 in C6 glioma cells; type: cell-based, rat
Protocol: Accumulation of hyperacetylated histone H4 was analyzed in the cell lysates by using Western Blotting and the antibody directed against acetylated histone H4 (Upstate). The C6 glioma cells were seeded at a density of 1×10^6 per 10 cm culture dish. After 24 hours, the cells were treated with 10 μg/mL of NBM-HD-1 or 4 mM sodium butyrate for several hours. The whole-cell lysates were prepared by using denaturing SDS sample buffer and then separated on 15% SDS-polyacrylamide gels. […] The amount of acetylated histones was hardly detectable in untreated C6 glioma cells. The amount of acetylated histone H4 of the cells treated with 4 mM sodium butyrate for 2 hours increased. Sodium butyrate was then removed from the culture medium. After 6 hours, the amount of acetylated histone H4 decreased. The accumulation of acetylated histone H4 increased in the cells treated with NBM-HD-1 for 2 hours. […] The highest histone acetylation appeared at 6 hours after the compound had been removed. […] Because NBM-HD-1 is more hydrophobic than sodium butyrate, NBM-HD-1 can be retained in the cells longer than sodium butyrate and continuously induce the acetylation of histone H4.

[1] = tested on: human breast MCF-7 cancer cells; assay: Growth and morphology of breast cancer MCF-7 cells; type: cell-based
Protocol: The breast cancer MCF-7 cells, were cultured in Dulbecco's modified Eagle's medium (DMEM; Gibco) supplemented with penicillin G, streptomycin sulphate, 0.5 mM of L-glutamine and 10% fetal bovine serum (FBS; Gibco) at 37° C., 5% CO2 and 95% relative humidity. The cells were seeded at a density of 3×10^5 per well of 6-well plates. After 24 hours, the cells were treated with different concentrations of compound NBM-HD-1 and 4 mM sodium butyrate being used as the positive control. The cells were observed after 48 hours and counted after 96 hours. […] In FIG. 8(A), after the cells were incubated with 2.5 μg/mL (FIG. 8(A)-b), 5 μg/mL (FIG. 8(A)-c) and 10 μg/mL (FIG. 8(A)-d) of NBM-HD-1 for 48 hours, the density of MCF-7 cells reduced dramatically in comparison with that of the control group (FIG. 8(A)-a). The morphology of the MCF-7 cells in the experimental group changed in comparison with that in the control group. […] The results of the cell counting (FIG. 8(B)) indicate that, similar to sodium butyrate, NBM-HD-1 inhibits cell growth.
MCF-7 cancer cells were seeded at a density of 3×10^5 per well in 6-well plates. After 24 hours, the cells were treated with different concentrations of compound NBM-HD-2 and 4 mM sodium butyrate being used as the positive control. The cells were observed and counted after 72 hours. […] In FIG. 13(A), after the cells were incubated with 2.5 μg/mL (FIG. 13(A)-c), 5 μg/mL (FIG. 13(A)-d), 7.5 μg/mL (FIG. 13(A)-e) and 10 μg/mL (FIG. 13(A)-f) of NBM-HD-2 for 72 hours, the density of MCF-7 cells reduced dramatically in comparison with that of the control group (FIG. 13(A)-a). The morphology of the MCF-7 cells in the experimental group changed in comparison with that in the control group.
MCF-7 cancer cells were seeded at a density of 3×10^5 per well of 6-well plates. After 24 hours, the cells were treated with different concentrations of compound NBM-HD-3 and 4 mM sodium butyrate, which was being used as the positive control. The cells were observed and counted after 72 hours. […] In FIG. 14(A), after the cells were incubated with 2.5 μg/mL (FIG. 14(A)-c), 5 μg/mL (FIG. 14(A)-d), 7.5 μg/mL (FIG. 14(A)-e) and 10 μg/mL (FIG. 14(A)-f) of NBM-HD-3 for 72 hours, the density of MCF-7 cells reduced dramatically in comparison with that of the control group (FIG. 14(A)-a). The morphology of the MCF-7 cells in the experimental group changed in comparison with that in the control group. […] The results of the cell counting (FIG. 14(B)) indicate that, similar to sodium butyrate, NBM-HD-3 inhibits cell growth.

cortical neurons = assay: Neurite outgrowth of cortical neurons from fetal rat neural stem cells; type: cell-based, Wistar rat; conditions: 0.63 μg/mL, 6 days, vs DMSO control
Protocol: The growth medium for the NSCs (neural stem cells) and cortical neurons was prepared by adding penicillin G, streptomycin and 0.5 mM of L-glutamine into a B-27 supplemented neurobasal medium (Gibco). The unborn fetus was taken out of the fetal sac in the abdominal cavity of a 17-day pregnant Wistar rat under anesthesia. The cerebral tissue was removed from the fetus and treated with 0.1% trypsin solution at 25° C. for three minutes. After washing with PBS solution 3 times, the cells were dissociated by up and down mixing. The resulting solution was passed through a 70 μm Nylon cell strainer (Falcon) in order to obtain the filtrate that contained cerebral cells. The filtrate was centrifuged at 1000 rpm for 10 minutes and the supernatant was aspirated. The resulting pellet was resuspended in the growth medium prepared as stated above. The resulting suspension contained NSCs.
The cells obtained from the suspension were cultivated in 6-well plates coated with 30 μg/ml of poly-D-lysine (Sigma) at the density of 75 cells/mm^2. The cells were cultured at 37° C., 5% CO2 and 95% relative humidity. The growth media contained 0.63 μg/mL of NBM-HD-1 and the growth media with 1 μl of DMSO was used as the control. […]
After cultivation for 6 days, live cells were observed by microscope. The lengths of the neurites of the neurons in 6 different fields were measured and averaged. […]

COc1cc2c(c(OC)c1CCC(C)(C)O)C(=O)C[C@@H](c1ccc(OC)c(OC)c1C/C=C(\C)CCCC(C)(C)O)O2 [NBM-HD-1]
cell cycle of C6 glioma cells (rat C6 glioma cells): cell cycle arrest on the G0/G1 phase in a dose-dependent manner
accumulation of hyperacetylated histone H4 (acetylated histone H4; 10 μg/mL NBM-HD-1 or 4 mM sodium butyrate, 2 hours): can increase the accumulation of hyperacetylated histone H4
time of highest histone acetylation after removal of the compound (acetylated histone H4; 10 μg/mL, 2 hours treatment): 6 h
amount of acetylated histone H4 after removal of the compound (acetylated histone H4; after 2 hours treatment and removal from the culture medium, up to 6 hours): increased over time
morphology of MCF-7 cancer cells ([1]; 2.5, 5, 10 μg/mL, 48 hours): change their morphology
growth of MCF-7 cancer cells ([1]; NBM-HD-1 2.5, 5, 10 μg/mL or 4 mM sodium butyrate, observed after 48 hours, counted after 96 hours): can inhibit the growth of MCF-7 cancer cells in a dose-dependent manner
neurite outgrowth (length of the neurites) (cortical neurons): could promote the neurite outgrowth
